Key:
Assay type in all cases: in vivo
Settings in all cases: 250 g/h, evaluated after 13 days, five-point scale
[1] = tested on: Echinochloa crus-galli (ECHCG); assay: Post-emergence herbicidal glasshouse test, ECHCG
Description: (§1) Seeds of a variety of test species are sown in standard soil in pots Amaranthus retoflexus (AMARE), Abutilon theophrasti (ABUTH), Setaria faberi (SETFA), Echinochloa crus-galli (ECHCG), Ipomoea hederacea (IPOHE)). After cultivation for one day (pre-emergence) or after 8 days cultivation (post-emergence) under controlled conditions in a glasshouse (at 24/16° C., day/night; 14 hours light; 65% humidity), the plants are sprayed with an aqueous spray solution derived from the formulation of the technical active ingredient in acetone/water (50:50) solution containing 0.5% Tween 20 (polyoxyethelyene sorbitan monolaurate, CAS RN 9005-64-5). Compounds are applied at 250 g/h unless otherwise indicated. The test plants are then grown in a glasshouse under controlled conditions in a glasshouse (at 24/16° C., day/night; 14 hours light; 65% humidity) and watered twice daily. After 13 days for pre and post-emergence, the test is evaluated for the percentage damage caused to the plant. The biological activities are shown in the following table on a five-point scale (5=80-100%; 4=60-79%; 3=40-59%; 2=20-39%; 1=0-19%).

[2] = tested on: Ipomoea hederacea (IPOHE); assay: Post-emergence herbicidal glasshouse test, IPOHE
Description: as §1

[3] = tested on: Setaria faberi (SETFA); assay: Post-emergence herbicidal glasshouse test, SETFA
Description: as §1

[4] = tested on: Abutilon theophrasti (ABUTH); assay: Pre-emergence herbicidal glasshouse test, ABUTH
Description: as §1

[5] = tested on: Setaria faberi (SETFA); assay: Pre-emergence herbicidal glasshouse test, SETFA
Description: as §1

[6] = tested on: Amaranthus retoflexus (AMARE); assay: Pre-emergence herbicidal glasshouse test, AMARE
Description: as §1

[7] = tested on: Echinochloa crus-galli (ECHCG); assay: Pre-emergence herbicidal glasshouse test, ECHCG
Description: as §1

[8] = tested on: Abutilon theophrasti (ABUTH); assay: Post-emergence herbicidal glasshouse test, ABUTH
Description: as §1

[9] = tested on: Ipomoea hederacea (IPOHE); assay: Pre-emergence herbicidal glasshouse test, IPOHE
Description: as §1

[10] = tested on: Amaranthus retoflexus (AMARE); assay: Post-emergence herbicidal glasshouse test, AMARE
Description: as §1

| SMILES | percentage damage caused to the plant, POST Application ECHCG [1] | percentage damage caused to the plant, POST Application IPOHE [2] | percentage damage caused to the plant, POST Application SETFA [3] | percentage damage caused to the plant, PRE Application ABUTH [4] | percentage damage caused to the plant, PRE Application SETFA [5] | percentage damage caused to the plant, PRE Application AMARE [6] | percentage damage caused to the plant, PRE Application ECHCG [7] | percentage damage caused to the plant, POST Application ABUTH [8] | percentage damage caused to the plant, PRE Application IPOHE [9] | percentage damage caused to the plant, POST Application AMARE [10] |
| --- | --- | --- | --- | --- | --- | --- | --- | --- | --- | --- |
| CCC(=O)N(C)Cc1c(OC(F)(F)F)ccc(C(=O)Nc2nnnn2C)c1Cl [Compound 1.001] | 5 (5=80-100%) | 5 (5=80-100%) | 5 (5=80-100%) | 5 (5=80-100%) | 3 (3=40-59%) | 5 (5=80-100%) | 4 (4=60-79%) | 5 (5=80-100%) | 1 (1=0-19%) | 5 (5=80-100%) |
| CCC(=O)NCc1c(OC(F)(F)F)ccc(C(=O)Nc2nnnn2C)c1Cl [Compound 1.003, 2-chloro-N-(1-methyltetrazol-5-yl)-3-[(propanoylamino)methyl]-4-(trifluoromethoxy)benzamide] | 5 (5=80-100%) | 5 (5=80-100%) | 5 (5=80-100%) | 5 (5=80-100%) | 4 (4=60-79%) | 5 (5=80-100%) | 1 (1=0-19%) | – | 3 (3=40-59%) | 5 (5=80-100%) |
| Cn1nnnc1NC(=O)c1ccc(OC(F)(F)F)c(CNC(=O)c2ccc(Cl)cc2)c1Cl [Compound 1.011] | 5 (5=80-100%) | 5 (5=80-100%) | 2 (2=20-39%) | 5 (5=80-100%) | 1 (1=0-19%) | 5 (5=80-100%) | 1 (1=0-19%) | 5 (5=80-100%) | 1 (1=0-19%) | 5 (5=80-100%) |
| CC(=O)NCc1c(OC(F)(F)F)ccc(C(=O)Nc2nnnn2C)c1Cl [Compound 1.009] | 5 (5=80-100%) | 5 (5=80-100%) | 5 (5=80-100%) | 5 (5=80-100%) | 5 (5=80-100%) | 5 (5=80-100%) | 5 (5=80-100%) | 5 (5=80-100%) | 4 (4=60-79%) | 5 (5=80-100%) |
| CCCC(=O)NCc1c(OC(F)(F)F)ccc(C(=O)Nc2nnnn2CC)c1Cl [Compound 1.005] | – | 5 (5=80-100%) | 5 (5=80-100%) | 5 (5=80-100%) | 1 (1=0-19%) | 5 (5=80-100%) | 1 (1=0-19%) | 5 (5=80-100%) | 1 (1=0-19%) | 5 (5=80-100%) |
| Cn1nnnc1NC(=O)c1ccc(OC(F)(F)F)c(CNC(=O)c2c(F)cccc2F)c1Cl [Compound 1.008] | 5 (5=80-100%) | 5 (5=80-100%) | 4 (4=60-79%) | 5 (5=80-100%) | 2 (2=20-39%) | 5 (5=80-100%) | 2 (2=20-39%) | 5 (5=80-100%) | 1 (1=0-19%) | – |
| Cn1nnnc1NC(=O)c1ccc(OC(F)(F)F)c(CNC(=O)c2ccc(F)cc2F)c1Cl [Compound 1.010] | 5 (5=80-100%) | 5 (5=80-100%) | 5 (5=80-100%) | 5 (5=80-100%) | 1 (1=0-19%) | 5 (5=80-100%) | 1 (1=0-19%) | 5 (5=80-100%) | 1 (1=0-19%) | 5 (5=80-100%) |
| CN(Cc1c(OC(F)(F)F)ccc(C(=O)Nc2nnnn2C)c1Cl)C(=O)C1CC1 [Compound 1.002] | 5 (5=80-100%) | 5 (5=80-100%) | 5 (5=80-100%) | 3 (3=40-59%) | 2 (2=20-39%) | 1 (1=0-19%) | 2 (2=20-39%) | 5 (5=80-100%) | 1 (1=0-19%) | 5 (5=80-100%) |

Reference: patent US20250221411A1, “SUBSTITUTED BENZAMIDES AS HERBICIDES” (SYNGENTA CROP PROTECTION AG, priority 2021, published 2025)
